Square brackets hold non-standard residues; d marks the D form. Ends that are not written are not given here. Bip = N[C@@H](Cc1ccc(-c2ccccc2)cc1)C(=O)O
What was measured:
[1] = test system: C57BL/6J mice switched on HFC diet; experiment: Long term effect of peptides on lipoprotein metabolism (7 days pumps, 160 hrs); assay type: in vivo, mouse; conditions: 160 hrs infusion, pumps 1 μl/hr
Method: (§1) Effect of time-released peptides on plasma lipoprotein profile—To determine relatively long-term effect of SEQ ID NO: 1 and its derivatives on plasma lipoprotein profile, the Alzet Mini-Osmotic pumps (220 ul), containing various peptides or PBS, were surgically inserted in canulated Chow fed C57BL/6J mice. The pumps with flow rate equal to 8 μl/hr were used for 20 hrs continuous infusion of peptides. The pumps with flow rate equal to 1 μl/hr were used for 160 hrs continuous infusions of peptides. At the end point (20 or 160 hrs after pumps insertion) mice were sacrificed, and blood was drawn by retroorbital puncture and subjected to low speed centrifugation at 4° C. to obtain the plasma. Bile was immediately removed from gall bladders using insulin syringes, and stored on ice until use.
To determine HDL cholesterol, low density lipoproteins were precipitated from plasma using a modified Burstein-Samaille method according to manufacturer's instructions (Boehringer Mannheim 543004), modifying only the ratio of reagent:water from 4:1 to 4:2. Gall bladder derived bile was diluted twice with deionized water, and cholesterol was determined using. Infinity reagents. 3α-Hydroxybile acids were quantified uiising a colorimetric-enzymatic method (Sigma 450).
To monitor cholesterol distribution among the different lipoprotein classes, plasma samples were combined within each group (usually 4-6 mice per group), and subjected to FPLC size-exclusion chromatography on a Superose 6 (HR 10/30 column, Amersham-Pharmacia) using an isocratic 10 mM Tris/150 mM NaCl/1 mM EDTA buffer system at a flow rate of 0.15 ml/min. […] Total and free cholesterol in plasma fractions was determined by using the fluorescent method of W. Gamble, et al. (Gamble et al., 1978, Journal Lipid Res., 16: 1068-1070). 96-well plates were read on Dual-Scanning Microplate Spectrofluorometer Gemini XS (Molecular Devices). The areas under the lipoprotein peaks were quantified by using Unicorn software (Version 3.21.02). The amount of esterified cholesterol was assessed by subtraction of free cholesterol from total cholesterol. […]

[2] = biological target: T1, PLTP (Mus musculus, UniProt P55065); experiment: Effect of peptides on PLTP activity; assay type: biochemical; conditions: mouse plasma incubated with 0.4, 2, 5 and 10 ug peptide at RT for 30 min
T1 construct: Mouse plasma (source of enzyme), obtained from Chow fed mice and from mice fed with high fat cholate containing diet; from tissue; host or cells: serum/plasma of C57BL/6J male mice (chow-fed or high fat cholate diet for 4 days)
Method: Effect of peptides on PLTP activity—PLTP activity was measured using a fluorescent kit (Cardiovascular Targets, Inc., P7700). PLTP source was serum obtained from C57BL/6J male 2 months old mice, which were Chow-fed or maintained on high fat cholate containing diet for four days. 1× Mouse serum was preincubated with PBS or 0.4, 2, 5, and 10 μg of peptides at RT for 30 minutes. Following preincubation, the mixture was diluted 10 times, and 10 μl ([…] nest serum) was immediately mixed into reaction wells of pre-chilled 96-well plate, containing assay system (Cardiovascular Targets, Inc., P7700). The microplates were read at 37° C. in SpectraMax 190 (Molecular Devices), for 30 minutes.
Mouse plasma (source of enzyme), obtained from Chow fed mice and from mice fed with high fat cholate containing diet for 4 days, was incubated with PBS or the peptide of SEQ ID Nos: 34, 86, 91 and 96 (0.4, 2, 5, and 10 ug) at RT for 30 min. Reaction was started by addition of 0.3 μl of plasma/PBS or plasma/SEQ ID NO mixture to 100 μl of assay solution containing fluorescent substrate. PLTP activity was monitored on Spectrofluorometer for 20 min at 37° C. Each bar represents the Mean±SEM obtained from 3 independent experiments.

[3] = test system: C57BL/6J mice switched on HFC diet; experiment: Effect of time-released peptides on plasma lipoprotein profile (20 hrs pumps); assay type: in vivo, mouse; conditions: for plasma HDL cholesterol levels / plasma levels of HDL phospholipids / plasma levels of low density lipoproteins: 20 hrs continuous infusion, pumps 8 ul/hr; for activity upon infusion into mice for 20 hrs: 20 hrs infusion, FIG. 16
Method: as §1
(§2) To monitor cholesterol distribution among the different lipoprotein classes, plasma samples were combined within each group (usually 4-6 mice per group), and subjected to FPLC size-exclusion chromatography on a Superose 6 (HR 10/30 column, Amersham-Pharmacia) using an isocratic 10 mM Tris/150 mM NaCl/1 mM EDTA buffer system at a flow rate of 0.15 ml/min. Fractions (0.15 ml) were collected into 96-well plates containing 0.055 ml of 1:1 mixture of 0.5% Triton X-100 and 20 mM Sodium Cholate. Total and free cholesterol in plasma fractions was determined by using the fluorescent method of W. Gamble, et al. (Gamble et al., 1978, Journal Lipid Res., 16: 1068-1070). 96-well plates were read on Dual-Scanning Microplate Spectrofluorometer Gemini XS (Molecular Devices). The areas under the lipoprotein peaks were quantified by using Unicorn software (Version 3.21.02). The amount of esterified cholesterol was assessed by subtraction of free cholesterol from total cholesterol.
To monitor the distribution of phospholipid among the lipoprotein classes, plasma samples were combined within each group (usually 4-6 mice per group), and subjected to agarose gel electrophoresis, which was carried out using the Paragon system (Beckman Coulter) according to manufacturer's instructions, with following staining with Paragon Lipo Stain (Beckman Coulter 655910). Once dried, the gels were scanned on Personal Densitometer SI (Molecular Dynamics) and bands were quantified using ImageQuant™ software (Verssion 5.2).
Impact of SEQ ID NO: 1 on lipoprotein metabolism (20 hrs pumps)—To determine relatively long-term effect of SEQ ID NO: 1 on plasma lipoprotein profile, the Alzet Mini-Osmotic pumps, containing SEQ ID NO: 1 or PBS, were surgically inserted in canculated Chow fed C57BL/6J mice. The pumps flow rate was equal to 8 ul per hr, which provided the delivery amount of SEQ ID NO: 1 per hr as indicated for FIG. 9. Mice were switched on HFC diet immediately after surgery. 20 hrs later plasma samples were obtained, combined within each group (4 to 6 mice), and subjected to FPLC analysis and agarose gel electrophoresis for assessment of cholesterol and phospholipid distribution among the lipoprotein classes. […] The LDL lowering effect was attenuated with increase of SEQ ID NO: 1 concentration. This phenomenon can be explained by self-competition between free and LDL-bound form of SEQ ID NO: 1 for the liver lipoprotein binding sites. In contrast, HDL cholesterol levels were positively correlated with SEQ ID NO: 1 concentration.
Impact of SEQ ID NO: 1 structural derivatives (3 to 13 amino acid residues) on lipoprotein metabolism (20 hrs pumps)—To determine relatively long-term effect on plasma lipoprotein profile, the Alzet Mini-osmotic pumps, containing SEQ ID NO: 1 derivatives or PBS, were surgically inserted in canulated Chow fed C57BL/6J mice. The pumps flow rate was equal to 8 ul per hr, which provided the deliveries of 30-40 μg of peptides per hr. Mice were switched on HFC diet immediately after surgery. […]

[4] = test system: C57BL/6J mice fed a cholate-containing high fat diet (HFC); experiment: Effect of single bolus injections of peptides on plasma lipoprotein profile; assay type: in vivo, mouse; conditions: single bolus i.v. 100 μg
Method: Effect of single bolus injections of peptides on plasma lipoprotein profile—To monitor effect of peptides on plasma cholesterol levels and its distribution among the different lipoprotein classes, the nonradioiodinated free peptides (100 μg in 100 μl of PBS) were injected intravenously into the tail vein of nonfasted C57BL/6J wild type mice, which have been placed on high fat cholate-containing diet four days prior to experiment. To control for the effect of external- and/or internal nonspecific factors (stress of handling, anesthetic, blood drawing) on plasma lipoprotein profile, a similar group of mice was injected with only PBS. Different groups of mice were sacrificed before and at various times after injections and blood was drawn by retroorbital puncture and subjected to low speed centrifugation at 4° C. to obtain the plasma. Plasma samples were obtained, combined within each group (4 mice), and subjected to gel filtration chromatography on a Superose 6 (HR 10/30 column, FPLC) to monitor cholesterol lipoproteins distribution and agarose gel electrophoresis (Paragon Systems) to monitor phospholipid lipoproteins distribution.
as §2
Mice were divided into two groups—control and experimental. Each group contained 4 mice.
Effect of “frame-shift” derived peptides on lipoprotein metabolism (Single bolus injections)—We performed the functional frame-shift of the entire region of mouse apolipoprotein A1 where SEQ ID NO: 1 derived from (helix 6, Pro166-Pro188, precursor protein). Frame-shift was done in both directions (form N-to C- and from C- to N-Terminus). […] Mice were divided into two groups—control and experimental. Each group contained 4 mice. […] The data are expressed as percent of change of total cholesterol (TC) content of VLDL, IDL/LDL, and HDL classes in experimental mice relative to control (PBS injected) mice.
Effect of chemically modified derivatives of SEQ ID NO: 1 and peptides derived from other mouse apoA1 regions on mouse plasma lipoprotein profile (Single bolus injections)—To increase SEQ ID NO: 1 hydrophobicity, Phenyl Acetyl or Pivalic Acid were attached to N-Terminal Tyr residue of SEQ ID NO: 1, or Tyr residue was removed from N-terminus. […] Mice were divided into two groups—control and experimental. Each group contained 4 mice. […] The data are expressed as percent of change of total cholesterol (TC) content of VLDL, IDL/LDL, and HDL classes in experimental mice relative to control (PBS injected) mice.

T1 sequence (P55065 18-493): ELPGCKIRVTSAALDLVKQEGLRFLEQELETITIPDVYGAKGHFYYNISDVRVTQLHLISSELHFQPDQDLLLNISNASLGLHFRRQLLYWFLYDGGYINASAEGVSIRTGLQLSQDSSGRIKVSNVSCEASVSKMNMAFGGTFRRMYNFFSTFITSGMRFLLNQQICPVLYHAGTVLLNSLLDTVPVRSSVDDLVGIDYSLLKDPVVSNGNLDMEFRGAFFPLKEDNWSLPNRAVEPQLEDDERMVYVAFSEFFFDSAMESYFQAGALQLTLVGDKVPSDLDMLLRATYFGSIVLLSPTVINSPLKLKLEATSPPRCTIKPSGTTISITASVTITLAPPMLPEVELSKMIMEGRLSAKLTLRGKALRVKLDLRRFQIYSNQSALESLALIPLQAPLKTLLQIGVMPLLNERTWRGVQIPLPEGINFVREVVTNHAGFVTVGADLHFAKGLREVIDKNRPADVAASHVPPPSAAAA

Row | Substance | amount of phospholipid in the HDL zone [1] | effect on PLTP activity [2] | also measured
1 | E-BIP-R (Glu-[Bip]-Arg) [SEQ ID NO: 91] | increase | activation of PLTP | –
2 | EEFRDR [SEQ ID NO: 87] | – | – | plasma HDL cholesterol levels [3]: decrease; plasma levels of HDL phospholipids [3]: decrease; plasma levels of low density lipoproteins [3]: increase
3 | EFR [SEQ ID NO: 34] | increase | activation of PLTP | –
4 | THVDSLRTQLAP (Ac-THVDSLRTQLAP-NH2) [SEQ ID NO: 7] | – | – | impact on plasma HDL-C levels [4]: marked HDL-C elevating properties
5 | dRMRTH ([dD]RMRTH) [SEQ ID NO: 36] | – | did not have any significant effect | activity upon infusion into mice for 20 hrs [3]: did not show significant activity
6 | efr ([dE]-[dF]-[dR]) [SEQ ID NO: 96] | – | activation of PLTP | –
7 | erf ([dE]-[dR]-[dF]) [SEQ ID NO: 86] | increase | activation of PLTP | –
8 | rDRMRTh ([dR]DRMRT[dH]) [SEQ ID NO: 35] | – | did not have any significant effect | plasma HDL cholesterol levels [3]: decrease; plasma levels of HDL phospholipids [3]: decrease; plasma levels of low density lipoproteins [3]: increase; activity upon infusion into mice for 20 hrs [3]: did not show significant activity

From patent publication US20050159362A1, “Mediators of reverse cholesterol transport for the treatment of hypercholesterolemia” (priority 2003, published 2005)
